Assays:
Brain = test: Drug uptake in rat brain at 20 mg/kg, po; type: ADME, organism-based; design: dose 20 mg/kg, route oral; details: in vivo, read-out: Drug uptake
Rattus norvegicus [1] = test: Volume of distribution at steady state in rat at 2 mg/kg, iv; type: ADME, organism-based; design: dose 2 mg/kg, route intravenous; details: in vivo
Rattus norvegicus [2] = test: AUC (0 to t) in rat at 2 mg/kg, iv; type: ADME, organism-based, Plasma; design: dose 2 mg/kg, route intravenous; details: in vivo
Rattus norvegicus [3] = test: Cmax in rat at 20 mg/kg, po; type: ADME, organism-based; design: dose 20 mg/kg, route oral; details: in vivo
Rattus norvegicus [4] = test: AUC (0 to t) in rat at 20 mg/kg, po; type: ADME, organism-based, Plasma; design: dose 20 mg/kg, route oral; details: in vivo
Rattus norvegicus [5] = test: Cmax in rat at 2 mg/kg, iv; type: ADME, organism-based; design: dose 2 mg/kg, route intravenous; details: in vivo
Plasma = test: Plasma concentration in rat at 20 mg/kg, po; type: ADME, organism-based; design: dose 20 mg/kg, route oral; details: in vivo
Rattus norvegicus [6] = test: Tmax in rat at 20 mg/kg, po; type: ADME, organism-based; design: dose 20 mg/kg, route oral; details: in vivo
[7] = Tmax in rat at 10 mg/kg, ip; type: ADME, organism-based; design: dose 10 mg/kg, route intraperitoneal; details: in vivo
Nucleic Acid = test: Ratio of drug uptake from brain to plasma in rat after 30 mins; type: ADME; details: 0.5 h

| concentration (Brain) [µM] | Vdss (Rattus norvegicus [1]) [L/kg] | AUCt (Rattus norvegicus [2]) [µmol·min/L] | Cmax (Rattus norvegicus [3]) [µM] | AUCt (Rattus norvegicus [4]) [µmol·min/L] | Cmax (Rattus norvegicus [5]) [µM] | concentration (Plasma) [µM] | Tmax (Rattus norvegicus [6]) [min] | Tmax [7] [min] | BPR (Nucleic Acid) | Compound |
| --- | --- | --- | --- | --- | --- | --- | --- | --- | --- | --- |
| 1.12 | 0.81 | 231.7 | 2.57 | 544.8 | 5 | 5.29 | 135 |  |  | Cc1c(OCCCCOc2ccc(C(=O)O)cc2)ccc(C(=O)CC(C)C)c1O |
| 0.23 | 0.89 | 123.7 | 12.5 | 720.5 | 3.52 | 4.23 | 30 |  |  | Cc1c(OCCCCOc2ccc(F)c(C(=O)O)c2)ccc(C(=O)CC(C)C)c1O |
| 0.81 | 0.55 | 304.6 | 2.75 | 1274.6 | 6.43 | 16.4 | 90 | 30 |  | COc1cc(C(=O)O)ccc1OCCCCOc1ccc(C(=O)CC(C)C)c(O)c1C |
|  | 2.87 | 77.2 | 1.05 | 466.2 | 2.15 |  | 96 |  |  | COc1ccc(C(=O)O)cc1OCCCCOc1ccc(C(=O)CC(C)C)c(O)c1C |
|  |  |  |  |  |  |  |  | 30 |  | CCC(=O)c1ccc(OCCCCOc2ccc(F)c(C(=O)O)c2)c(C)c1O |
|  |  |  |  |  |  |  |  | 30 |  | CCCC(=O)c1ccc(OCCCCOc2cc(C(=O)O)ccc2OC)c(C)c1O |
|  |  |  |  |  |  |  |  | 30 |  | COc1ccc(C(=O)O)cc1OCCCCOc1ccc(C(=O)CC(C)(C)C)c(O)c1C |
|  |  |  |  |  |  |  |  | 30 | 0.02 | COc1cc(C(=O)O)ccc1OCCCCOc1ccc(C(=O)CC(C)(C)C)c(O)c1C |
|  |  |  |  |  |  |  |  | 30 |  | Cc1c(OCCCCOc2ccc(C(=O)CC(C)(C)C)c(O)c2C)cccc1C(=O)O |
|  |  |  |  |  |  |  |  | 30 |  | Cc1c(OCCCCOc2ccc(F)c(C(=O)O)c2)ccc(C(=O)CC(C)(C)C)c1O |

Reference: ChEMBL document CHEMBL3286233, “Design and synthesis of systemically active metabotropic glutamate subtype-2 and -3 (mGlu2/3) receptor positive allosteric modulators (PAMs): pharmacological characterization and assessment in a rat model of cocaine dependence” (J Med Chem, 2014)
